Reference: PMC4554294 (Biochemistry and Biophysics Reports, 2015)

What was measured:
Assay in all cases: saturation transfer difference
Assay type in all cases: binding
[1] = target: T1, sucrose phosphorylase (LmSPase) (Leuconostoc mesenteroides, UniProt Q59495, F52A)
T1 sequence (Q59495 1-490 F52A): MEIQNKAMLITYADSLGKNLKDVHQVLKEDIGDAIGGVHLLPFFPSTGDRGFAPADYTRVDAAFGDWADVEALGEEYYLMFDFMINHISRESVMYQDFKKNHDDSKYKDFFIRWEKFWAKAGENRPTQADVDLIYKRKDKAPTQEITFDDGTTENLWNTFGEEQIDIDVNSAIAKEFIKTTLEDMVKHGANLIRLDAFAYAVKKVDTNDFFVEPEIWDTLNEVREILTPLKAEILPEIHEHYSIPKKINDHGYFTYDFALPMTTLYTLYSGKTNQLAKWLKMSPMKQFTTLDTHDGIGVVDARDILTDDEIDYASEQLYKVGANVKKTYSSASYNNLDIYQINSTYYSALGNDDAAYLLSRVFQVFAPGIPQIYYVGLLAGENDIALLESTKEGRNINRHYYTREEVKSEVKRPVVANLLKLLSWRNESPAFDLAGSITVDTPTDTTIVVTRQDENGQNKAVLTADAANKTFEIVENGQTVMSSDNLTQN

[2] = target: T2, sucrose phosphorylase (LmSPase) (Leuconostoc mesenteroides, UniProt Q59495)
T2 sequence (Q59495 1-490): T1 sequence (Q59495 1-490 F52A)

[3] = target: T3, sucrose phosphorylase (LmSPase) (Leuconostoc mesenteroides, UniProt Q59495, F52A/E237A)
T3 sequence (Q59495 1-490 F52A/E237A): T1 sequence (Q59495 1-490 F52A)

[4] = target: T4, sucrose phosphorylase (LmSPase) (Leuconostoc mesenteroides, UniProt Q59495, F52A/D196A)
T4 sequence (Q59495 1-490 F52A/D196A): T1 sequence (Q59495 1-490 F52A)

[5] = target: T5, sucrose phosphorylase (LmSPase) (Leuconostoc mesenteroides, UniProt Q59495, F52A/D295A)
T5 sequence (Q59495 1-490 F52A/D295A): T1 sequence (Q59495 1-490 F52A)

## O=P(O)(O)O[C@H]1O[C@H](CO)[C@@H](O)[C@H](O)[C@H]1O [αGlc 1-P, α-D-glucose 1-phosphate]
[1]
  saturation transfer difference (STD) NMR: STD effects in αGlc 1-P were considerably weaker in F52A mutant than in wild-type enzyme
[2]
  saturation transfer difference (STD) NMR, 7 μM enzyme, 5.0 mM ligand: Binding of αGlc 1-P to LmSPase resulted in a characteristic pattern of STD effects
[3]
  saturation transfer difference (STD) NMR: suggesting that binding of αGlc 1-P did take place in each double mutant
[4]
  saturation transfer difference (STD) NMR: Incubation of either double mutant with αGlc 1-P gave rise to distinct STD effects in the ligand
[5]
  saturation transfer difference (STD) NMR; steady-state kinetics: STD signal intensities were higher on binding of αGlc 1-P to F52A_D295A mutant as compared to wild-type
